“Also recorded” adds a separate entry of the source. Read-outs that look alike come from different tables or passages of the source.
Columns and labels:
[1] = system: SNF539 cells; experiment: Cytotoxicity CellTiter-Glo; assay type: cell-based, human
[2] = system: SNB75 cells; experiment: Cytotoxicity CellTiter-Glo; assay type: cell-based, human
[3] = system: RMS13 cells; experiment: Cytotoxicity CellTiter-Glo; assay type: cell-based, human; conditions: RMS13, Rhabdomyosarcoma
[4] = system: Kelly cells; experiment: Cytotoxicity CellTiter-Glo; assay type: cell-based, human
[5] = system: SHEP cells; experiment: Cytotoxicity CellTiter-Glo; assay type: cell-based, human
[6] = system: A2780-CP cells; experiment: Cytotoxicity CellTiter-Glo; assay type: cell-based, human; conditions: read-out: IC50 (50% growth inhibition), Ovary, 72 hours
[7] = system: PE04 cells; experiment: Cytotoxicity CellTiter-Glo; assay type: cell-based, human; conditions: read-out: IC50 (50% growth inhibition); PE04, Ovary; 72 hours
[8] = system: 786-0 cells; conditions: 786-0, Renal
From the text: (§1) The methods that were used by the DTP were described on the DTP website: (https://dtp.nci.nih.gov/discovery_development/nci-60/methodology.htm).

[9] = system: A549/ATCC cells; conditions: Non-Small Cell Lung
From the text: as §1

[10] = system: BT-549 cells; conditions: BT-549, Breast
From the text: as §1

[11] = system: CCRF-CEM cells; conditions: Leukemia
From the text: as §1

[12] = system: COLO 205 cells; conditions: COLO 205, Colon
From the text: as §1

[13] = system: EKVX cells; conditions: Non-Small Cell Lung
From the text: as §1

[14] = system: HCT-116 cells; conditions: HCT-116, Colon
From the text: as §1

[15] = system: HOP-92 cells; conditions: HOP-92, Non-Small Cell Lung
From the text: as §1

[16] = system: HT29 cells; conditions: HT29, Colon
From the text: as §1

[17] = system: IGROV1 cells; conditions: IGROV1, Ovarian
From the text: as §1

[18] = system: K-562 cells; conditions: K-562, Leukemia
From the text: as §1

[19] = system: MALME-3M cells; conditions: Melanoma
From the text: as §1

[20] = system: MDA-MB-231/ATCC cells; conditions: Breast
From the text: as §1

[21] = system: MDA-MB-435 cells; conditions: MDA-MB-435, Melanoma
From the text: as §1

[22] = system: MDA-MB-468 cells; conditions: MDA-MB-468, Breast
From the text: as §1

[23] = system: MOLT-4 cells; conditions: MOLT-4, Leukemia
From the text: as §1

[24] = system: NCI-H23 cells; conditions: NCI-H23, Non-Small Cell Lung
From the text: as §1

[25] = system: NCI-H522 cells; conditions: NCI-H522, Non-Small Cell Lung
From the text: as §1

[26] = system: OVCAR-3 cells; conditions: OVCAR-3, Ovarian
From the text: as §1

[27] = system: OVCAR-4 cells; conditions: OVCAR-4, Ovarian
From the text: as §1

[28] = system: OVCAR-8 cells; conditions: OVCAR-8, Ovarian
From the text: as §1

[29] = system: PC-3 cells; conditions: PC-3, Prostate
From the text: as §1

[30] = system: RPMI-8226 cells; conditions: RPMI-8226, Leukemia
From the text: as §1

[31] = system: SF-539 cells; conditions: SF-539, Central Nervous System
From the text: as §1

[32] = system: SK-MEL-5 cells; conditions: SK-MEL-5, Melanoma
From the text: as §1

[33] = system: SK-OV-3 cells; conditions: SK-OV-3, Ovarian
From the text: as §1

[34] = system: SN12C cells; conditions: Renal
From the text: as §1

[35] = system: SNB-19 cells; conditions: SNB-19, Central Nervous System
From the text: as §1

[36] = system: SNB-75 cells; conditions: SNB-75, Central Nervous System
From the text: as §1

[37] = system: SR cells; conditions: Leukemia
From the text: as §1

[38] = system: SW-620 cells; conditions: SW-620, Colon
From the text: as §1

[39] = system: T-47D cells; conditions: Breast
From the text: as §1

[40] = system: UACC-257 cells; conditions: UACC-257, Melanoma
From the text: as §1

[41] = Pharmacokinetics: total platinum in plasma after i.v. tail vein injection; conditions: equimolar doses: SM-69 5 mpk, cisplatin 2 mpk; single i.v. dose, mice
From the text: (§2) The concentration versus time course of total platinum followed a two-compartment model in the mice. […] In the maximum tolerated dose studies, we observed body weight reduction in all mice due to the low folate diet (FIG. 6).

[42] = Lethality in C57BL/6 mice, i.v. once a week
From the text: as §2

[43] = system: HL-60(TB) cells; conditions: Leukemia
[44] = read-out: IC50 (50% growth inhibition), Neuroblastoma, 72 hours

Question: Which IC50 ([1]; read-out: IC50 (50% growth inhibition), SNF539, Brain, 72 hours) does the source give for [Pt(DMSO)methotrexate(Cl)] [SM-69] here?
Answer: Its IC50 is 1.2 ± 1.1 µM.

Question: What about the IC50 ([1]; read-out: IC50 ± S.D. (50% growth inhibition), SF539, Brain - High grade, + 1 mM Folic Acid) of the same substance?
Answer: Its IC50 is 13.4 ± 4.8 µM.

Question: What about the IC50 ([2]; read-out: IC50 (50% growth inhibition), SNB75, Brain, 72 hours) of the same substance?
Answer: Its IC50 is 6.1 ± 4.6 µM.

Question: What about the IC50 ([2]; read-out: IC50 ± S.D. (50% growth inhibition), SNB75, Brain - High grade, + 1 mM Folic Acid) of the same substance?
Answer: Its IC50 is 46.3 ± 20.2 µM.

Question: And the IC50 ([2]; read-out: IC50 ± S.D. (50% growth inhibition), SNB75, Brain - High grade, two independent experiments)?
Answer: Its IC50 is 8.7 ± 6.4 µM.

Question: What about the GI50 [3] of the same substance?
Answer: Its GI50 is 4.1 ± 2.3 µM.

Question: And the IC50 ([3]; read-out: IC50 (50% growth inhibition), 72 hours)?
Answer: Its IC50 is 4.1 ± 2.3 µM.

Question: What about the GI50 ([4]; Neuroblastoma) of the same substance?
Answer: Its GI50 is 3.7 ± 2.7 µM.

Question: And the IC50 [4, 44]?
Answer: The IC50 was 3.7 ± 2.7 µM.

Question: And the GI50 ([5]; Neuroblastoma)?
Answer: The GI50 was 2.7 ± 2.3 µM.

Question: What about the IC50 [5, 44] of the same substance?
Answer: The IC50 was 2.7 ± 2.3 µM.

Question: What about the IC50 [6] of the same substance?
Answer: The IC50 was 8.6 ± 2.1 µM.

Question: And the IC50 [7]?
Answer: Its IC50 is 4.9 ± 2 µM.

Question: And the Log10GI50 [8]?
Answer: The Log10GI50 was −5.46 M.

Question: And the Log10GI50 [9]?
Answer: The Log10GI50 was −5.30 M.

Question: And the Log10GI50 [10]?
Answer: Its Log10GI50 is −4.00 M.

Question: And the Log10GI50 [11]?
Answer: The Log10GI50 was −5.39 M.

Question: What about the Log10GI50 [12] of the same substance?
Answer: Its Log10GI50 is −4.34 M.

Question: What about the Log10GI50 [13] of the same substance?
Answer: Its Log10GI50 is −4.16 M.

Question: And the Log10GI50 [14]?
Answer: Its Log10GI50 is −5.50 M.

Question: And the Log10GI50 [15]?
Answer: The Log10GI50 was −4.00 M.

Question: And the Log10GI50 [16]?
Answer: Its Log10GI50 is −5.25 M.

Question: What about the Log10GI50 [17] of the same substance?
Answer: Its Log10GI50 is −4.11 M.

Question: What about the Log10GI50 [18] of the same substance?
Answer: Its Log10GI50 is −5.79 M.

Question: And the Log10GI50 [19]?
Answer: The Log10GI50 was −4.71 M.

Question: What about the Log10GI50 [20] of the same substance?
Answer: The Log10GI50 was −4.00 M.

Question: What about the Log10GI50 [21] of the same substance?
Answer: Its Log10GI50 is −5.36 M.

Question: And the Log10GI50 [22]?
Answer: Its Log10GI50 is −5.08 M.

Question: And the Log10GI50 [23]?
Answer: Its Log10GI50 is −5.30 M.

Question: What about the Log10GI50 [24] of the same substance?
Answer: Its Log10GI50 is −4.45 M.

Question: And the Log10GI50 [25]?
Answer: Its Log10GI50 is −4.74 M.

Question: And the Log10GI50 [26]?
Answer: Its Log10GI50 is −4.15 M.

Question: What about the Log10GI50 [27] of the same substance?
Answer: The Log10GI50 was −4.00 M.

Question: What about the Log10GI50 [28] of the same substance?
Answer: Its Log10GI50 is −5.36 M.

Question: What about the Log10GI50 [29] of the same substance?
Answer: Its Log10GI50 is −5.35 M.

Question: And the Log10GI50 [30]?
Answer: Its Log10GI50 is −4.94 M.

Question: What about the Log10GI50 [31] of the same substance?
Answer: Its Log10GI50 is −5.19 M.

Question: What about the Log10GI50 [32] of the same substance?
Answer: The Log10GI50 was −4.12 M.

Question: And the Log10GI50 [33]?
Answer: The Log10GI50 was −4.00 M.

Question: What about the Log10GI50 [34] of the same substance?
Answer: The Log10GI50 was −5.29 M.

Question: And the Log10GI50 [35]?
Answer: Its Log10GI50 is −4.00 M.

Question: And the Log10GI50 [36]?
Answer: The Log10GI50 was −4.39 M.

Question: What about the Log10GI50 [37] of the same substance?
Answer: The Log10GI50 was −5.52 M.

Question: What about the Log10GI50 [38] of the same substance?
Answer: Its Log10GI50 is −5.48 M.

Question: And the Log10GI50 [39]?
Answer: Its Log10GI50 is −4.08 M.

Question: And the Log10GI50 [40]?
Answer: The Log10GI50 was −4.01 M.

Question: And the “total platinum levels in plasma compared with cisplatin” value [41]?
Answer: Its value is “higher plasma levels of total platinum; also recorded: significantly higher than cisplatin”.

Question: What about the lethality ([42]; 5 mg/kg i.v. once a week) of the same substance?
Answer: The lethality was “not”.

Question: What about the lethality ([42]; 10 mg/kg i.v. once a week) of the same substance?
Answer: The lethality was “lethal”.

Question: And the Log10GI50 [43]?
Answer: Its Log10GI50 is −5.46 M.
